The text below walks through data of US8530453B2, “Compounds and methods for the treatment of pain and other diseases” (Aquilus Pharmaceuticals, Inc., priority 2009, dated 2013).

Series [1] relates to chronic constriction injury (CCI)-mouse model. To be noted: epineural daily injections, after the third day; cited from earlier work.
Series [2] relates to spinal nerve ligation (SNL) mouse model, mechanical allodynia. Briefly: Intraperitoneal (i.p.) administration in the SNL mouse model of pain, von Frey tactile allodynia test. The series is classed as in vivo. The text has this:
To measure the neuropathic pain inhibiting affects of the MMP inhibitors of the present invention, the spinal nerve ligation (SNL) mouse model was run on a select number of compounds. This model which began with the work of Bennet and coworkers (Bennet, G. J. et al. Pain, 33, (1988), 87-107) and was optimized by Kim and Chung (Kim, S. H.; Chung, J. M. Pain, 50, (1992), 355-363) entails first, under magnification, the removal of one-third of the transverse process and then identifying and then dissecting free the L5 spinal nerve from the adjacent L4 spinal nerve in the mouse. The L5 spinal nerve is then tightly ligated using 6.0 silk suture. The nerve injury leads to hyperalgesia which manifests itself by enhanced responses to mechanical, heat and/or cooling stimuli. In this case, mechanical hyperalgesia is tested via Von Frey monofilaments in which filaments of varying thicknesses and bending force are individually applied to the plantar surface of the foot of the mouse. […]
(§1) Tactile Allodynia Test. Mechanical allodynia was measured using the calibrated von Frey filaments (Semmes-Weinstein monofilaments; Stoelting, Wood Dale, Ill., U.S.A.). […] The Fifty percent paw withdrawal threshold response was determined by sequentially increasing or decreasing the stimulus strength according to the “up-down method” of Dixon (Annual Review Pharmacology Toxicology, 20, (1980), 441-462). […]

For series [3] the test system is unchanged. In words: Intrathecal (i.t.) administration in the SNL mouse model of pain, von Frey tactile allodynia test. The series is classed as in vivo. The following applies: for 50% paw withdrawal threshold, mean, Day (-2) Pre-operative Baseline: group baseline prior to SNL injury, before treatment, FVB male mice.
Text: To measure the neuropathic pain inhibiting affects of the MMP inhibitors of the present invention, the spinal nerve ligation (SNL) mouse model was run on a select number of compounds. This model which began with the work of Bennet and coworkers (Bennet, G. J. et al. Pain, 33, (1988), 87-107) and was optimized by Kim and Chung (Kim, S. H.; Chung, J. M. Pain, 50, (1992), 355-363) entails first, under magnification, the removal of one-third of the transverse process and then identifying and then dissecting free the L5 spinal nerve from the adjacent L4 spinal nerve in the mouse. The L5 spinal nerve is then tightly ligated using 6.0 silk suture. The nerve injury leads to hyperalgesia which manifests itself by enhanced responses to mechanical, heat and/or cooling stimuli. In this case, mechanical hyperalgesia is tested via Von Frey monofilaments in which filaments of varying thicknesses and bending force are individually applied to the plantar surface of the foot of the mouse. The threshold force necessary for paw withdrawal decreases dramatically after the nerve surgery. Potent pain inhibitors will reverse this affect resulting in greater force needing to be applied to cause the rodent paw to withdrawal.
Following preoperative baseline (Day −2) paw threshold measurement, FVB male mice were subjected to SNL injury (Day −1). […] Over the course of the study, paw withdrawal threshold of these animals was measured in response to mechanical stimulation using the von Frey Monofilament Test. […]
as §1

Series [4] is described as follows: In-vitro mouse microsomal stability. The series is classed as in vitro ADME. To be noted: compound 1 microMolar, at T = 60 minutes; for % Mean Remaining Parent with NADPH (%): mouse microsomes 0.3 mg/mL, 37 C; for % Mean Remaining Parent without NADPH (%): mouse microsomes, control omitting NADPH. As to the method: Human and mouse microsomal stability was determined for select compounds following the method of Houston (Houston, J B; Biochem. Pharmacol. 47, (1994), 1469).
1 μM concentration of compound and seperate human and mouse microsomes (0.3 mg/mL, BD bioscience) were used in the in-vitro assay. To ensure proper energy supply for microsomal degradation of compound, an energy regenerating system comprised of 100 mM potassium phosphate, 2 mM NADPH, 3 mM MgCl2, pH=7.4. and the microsomal protein is added to each sample and the resulting suspension is then incubated in duplicate for 60 min at 37° C. in a rotary shaker. A control is run for each test agent in duplicate omitting NADPH to detect NADPH-free degradation. At T=0 and T=60 min., an aliquot is removed from each experimental and control reaction and then mixed with an equal volume of ice-cold Stop Solution (consisting of 0.3% acetic acid in acetonitrile containing haloperidol and diclofenac as internal standards). Stopped reactions are then incubated for at least ten minutes at −20° C., and an additional volume of water is then be added. The samples are then centrifuged to remove precipitated protein, and the supernatants are then analyzed by LC-MS/MS to determine the percentage of compound remaining. The LC-MS/MS system used was an Agilent 6410 mass spectrometer coupled with an Agilent 1200 HPLC and a CTC PAL chilled autosampler, all controlled by MassHunter software (Agilent), or an ABI2000 mass spectrometer coupled with an Agilent 1100 HPLC and a CTC PAL chilled autosampler, all controlled by Analyst software (ABI). After separation on a C18 reverse phase HPLC column (Agilent, Waters, or equivalent) using an acetonitrile-water gradient system, peaks were analyzed by mass spectrometry (MS) using ESI ionization in MRM mode.

The target of series [5] is Catalytic domain of MMP-9 (human recombinant) (Homo sapiens, UniProt P14780). Briefly: biochemical. The following applies: read-out: Average Percent Inhibition (MMP-9).
Catalytic domain of MMP-9 (human recombinant), sequence (P14780 107-444 limits assumed): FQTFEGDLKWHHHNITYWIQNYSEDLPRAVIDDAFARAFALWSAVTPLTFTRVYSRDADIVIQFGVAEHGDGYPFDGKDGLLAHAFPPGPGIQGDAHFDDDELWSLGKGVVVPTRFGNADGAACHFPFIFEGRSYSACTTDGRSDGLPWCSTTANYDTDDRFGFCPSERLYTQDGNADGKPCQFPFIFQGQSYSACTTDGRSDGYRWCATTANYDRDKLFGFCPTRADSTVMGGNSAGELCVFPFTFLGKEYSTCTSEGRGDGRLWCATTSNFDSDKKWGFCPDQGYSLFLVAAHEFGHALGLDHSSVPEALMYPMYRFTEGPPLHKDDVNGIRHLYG
Protocol: A concentration of MMP inhibitor of the present invention was tested (1 microMolar) in duplicate runs. […] The mixture of enzyme and compound in assay buffer was then thoroughly mixed and incubated for 60 minutes at 37° C. Upon the completion of incubation, the assay was started by the addition of 10 μM of fluorescent substrate DNP-Pro-Cha-Gly-Cys(Me)-His-Ala-Lys(n-Me-Abz)-NH2 [SEQ ID NO: 1][Cha=β-cyclohexylalanyl; Abz=2-aminobenzoyl(anthraniloyl)] (Kd˜7 microMolar). The fluorescent product, DnpPChaG, was then measured at excitation of 365 nm and emission 450 nm by an automatic plate multireader at 37° C.
Another series relates to mechanical nociception. The following applies: in vivo; cited from earlier work.
In a further series the test system is humans. The following applies: clinical; cited from earlier work.

Take `CC(C)C[C@H](CC(=O)NO)C(=O)N[C@@H](Cc1ccc2ccccc2c1)C(=O)N[C@@H](C)C(N)=O` [TAPI-0]: in series [1], the “Effect on mechanical allodynia and thermal hyperalgesia (in words)” value was “able to block both mechanical allodynia and thermal hyperalgesia”.

With `[2H]C([2H])([2H])c1ccc(C#Cc2ccc(S(=O)(=O)N[C@H](Cc3c[nH]c4ccccc34)C(=O)O)s2)cc1` [Compound 10, (R)-3-(1H-Indol-3-yl)-2-[5-(4-trideuteromethyl-phenylethynyl)-thiophene-2-sulfonylamino]-propionic acid-(D3, 98%)], the “Reversal of mechanical allodynia (in words)” value in series [2] (i.p. approx. 3.3 mg/Kg daily) is reported as “complete reversal of mechanical alodynia by day 5”. In addition, in series [2] (i.p., 48 hours (day 6) from the last injection (day 4)), the “Duration of effect after last injection (in words)” value was “rather prolonged effect”. For the same molecule, the “50% paw withdrawal threshold, mean, Day (-2) Pre-operative Baseline” value in series [3] came out at 1.268 g. The “Reversal of allodynia (in words)” value in series [3] (i.t., as compared to vehicle and compound #5) was “almost complete reversal of allodynia”. In addition, in series [4], the “% Mean Remaining Parent with NADPH (%)” value stood at 85% and the “% Mean Remaining Parent without NADPH (%)” value is given as 91%. Moreover, in series [5], the inhibition at 1 µM was 78%.

`CNC(=O)[C@H](Cc1c[nH]c2ccccc12)NC(=O)[C@@H](CC(=O)NO)CC(C)C` [GM6001]: the “Effect on mechanical nociception (in words)” value with mechanical nociception is recorded as “found to attenuate mechanical nociception”.

Consider `CNC(=O)[C@@H](NC(=O)[C@H](CC(C)C)[C@H](O)C(=O)NO)C(C)(C)C` [Marimastat], for which, in the series with humans, the “Toxicities in humans (in words)” value was “time-dependent and dose-dependent musculoskeletal toxicities (arthralgia, myalgia, tendinitis)”.

Turning to `Cc1ccc(C#Cc2ccc(S(=O)(=O)N[C@H](Cc3c[nH]c4ccccc34)C(=O)O)s2)cc1` [Compound 5, (R)-3-(1H-Indol-3-yl)-2-(5-p-tolylethynyl-thiophene-2-sulfonylamino)-propionic acid], the “50% paw withdrawal threshold, mean, Day (-2) Pre-operative Baseline” value in series [3] was 1.265 g. In series [4], the “% Mean Remaining Parent with NADPH (%)” value came out at 83% and the “% Mean Remaining Parent without NADPH (%)” value amounted to 88%.
